Where two headings read alike, the source gives them in different places. *1 amine or outer side, *2 acyl side, *3 side chain or, on linkers, in order; H or OH if unused. Where a SMILES comes first, the peptide text is derived from it. Bridges are numbered along the chain shown (N, C = ends). [ ]: non-standard residue; d: D form. The star is where a group is joined. Phe(3,5-F2) = N[C@@H](Cc1cc(F)cc(F)c1)C(=O)O; Pro(4S-Me) = C[C@@H]1CN[C@H](C(=O)O)C1; NH(4-Et-phenyl) = CCc1ccc(N*)cc1; aThr = C[C@H](O)[C@H](N)C(=O)O; Pip = O=C(O)[C@@H]1CCCCN1; CO = O=C([*:1])[*:2]

The record followed here is patent US9879050B2, “Substituted urea depsipeptide analogs as activators of the CLPP endopeptidase” (priority 2013, dated 2018).

Series [1] addresses T1, Sa-ClpP (Staphylococcus aureus, UniProt Q2G036).
T1 construct: made in house; host or cells: E. coli BL21 (DE3)
In words: ClpP activation, EnzCheck Protease Assay with Bodipy-FL casein (second described method). The following applies: read-out: ClpP Activation EC50 (converted). In kind it is biochemical, S. aureus. Put shortly:
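Sa-ClpP (2 μM in master mix) with Bodipy-FL casein (2 μM in master mix) in Tris-HCl pH 8.0, 0.01% Triton X-100, compounds in 2% DMSO, triplicate. Fluorescence (ex 485/em 520 nm) followed 30 min; degradation slopes normalized to ADEP4 and DMSO controls, EC50 and % activation by four-parameter fit.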

A short description of series [2]: Cytotoxicity assay, CellTiter-Glo cell viability. Particulars: African green monkey. In kind it is cell-based. Put shortly:
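Vero cells seeded overnight at 37 °C in DMEM with 10% FBS, then exposed to serial dilutions of compound for 72 h. Viability read by CellTiter-Glo luminescence; IC50 from duplicates, given as the range of two independent experiments.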
(In general: ATP-based viability assays read luminescence as a measure of living cells.)

Series [3] has as its target T1, Sa-ClpP. The experiment in a line: ADEP displacement fluorescence polarization assay. Format: binding, S. aureus. The following applies: 1 μM Sa-ClpP, 50 nM FP probe ADEP 2591; read-out: ADEP Displacement IC50. The method in brief:
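Displacement of TAMRA-labelled ADEP 2591 probe (50 nM) from 1 μM Sa-ClpP, pre-equilibrated 1 h in Tris·HCl pH 8.0 with 2% DMSO, then 120 min at room temperature with compound, triplicate. Polarization (mP) read ex 530/em 579 nm, normalised to 20 μM ADEP 2378 and DMSO controls; four-parameter fit.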
(Polarisation of emitted light reports the rotation of a fluorescent probe.)

For series [4], the target named is T2, S. aureus ClpP (Sa-ClpP) (Staphylococcus aureus, UniProt Q2G036).
T2 construct: made in house; host or cells: E. coli BL21 (DE3)
The experiment in a line: ClpP activation, casein-BODIPY digestion assay (first described method). Format: biochemical. The following applies: first described ClpP activation assay (**); 10 μM saClpP, 25 μg/ml BODIPY FL casein, 37° C.; read-out: ClpP Activation EC50. How it is done: The compounds were assayed in a casein digestion assay in order to determine their effect on ClpP activation. Briefly, the assay was carried out using S. aureus ClpP (“Sa-ClpP”) overexpressed in E. coli BL21 (DE3) and purified in a two-step process. Purity of the protein was assessed through SDS PAGE analysis. EC50 evaluations were conducted in triplicate in a 20 μl assay format using a method adapted from Maurizi et al. (Methods Enzymol. (1994) 244:314-331.). Each well contained 10 μM saClpP, 25 μg/ml BODIPY FL casein (Invitrogen Corporation, San Diego, Calif.), and test compound in concentrations ranging between 0-100 μM in assay buffer (50 mM Tris pH 8, 200 mM KCl, and 1 mM TCEP). The reaction took place at 37° C. Fluorescence (excitation 485 nm; emission 528 nm) was measured in five minute intervals over a 45 min period using a BioTek HT fluorescence microplate reader (BioTek Instruments, Inc., Winooski, Vt.). Velocity of each reaction was calculated and data was fit to a dose response curve using GraphPad Prism® software (GraphPad Software, Inc., La Jolla, Calif.). EC50 is the effective concentration of compound which causes 50% activation of S. aureus ClpP in the foregoing BODIPY FL casein assay.

Series [5] has as its system E. coli K12ΔtolC. The experiment in a line: Minimal inhibitory concentration, microbroth dilution. Format: cell-based. How it is done:
Minimal inhibitory concentrations (“MICs”) were determined using the microbroth dilution method according to Clinical Laboratory Standards Institute (CLSI; National, C.F. C. L. S., Methods for Dilution Antimicrobial Susceptibility Tests for Bacteria Grow aerobically-Seventh Edition: Approved Standard M7-A7, CLSI, Wayne, Pa., USA, 2008) and were read by visual inspection. Two fold serial dilutions of test compound in 100 μL of the appropriate broth media were first prepared in 96-well round bottom microtiter plates (Nalgene Nunc International, Rochester, N.Y., USA). An equivalent volume (100 μL) of bacterial broth inocula containing approximately 10^5 bacterial cfu/mL was added to each well to give final concentrations of test compound starting at 200 μM. The plates were then incubated aerobically at 37° C. All strains were incubated overnight. After incubations, in all cases the MIC was recorded as the lowest concentration of drug that prevented bacterial growth. The bacterial strains for which MIC was determined as described in Table 4.
(Dilution methods test growth across graded concentrations, often in twofold steps.)

The test system of series [6] is S. aureus USA 300 ΔClpP. The series is described as above. In kind it is cell-based, Staphylococcus aureus. Particulars: ClpP inactivated strain. The method in brief:
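Growth inhibition was scored visually after overnight aerobic culture at 37 °C in CLSI-style microdilution plates. Inocula contained about 10^5 cfu/mL, and compound concentrations descended in twofold steps from 200 μM.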

T1 sequence (Q2G036 whole entry): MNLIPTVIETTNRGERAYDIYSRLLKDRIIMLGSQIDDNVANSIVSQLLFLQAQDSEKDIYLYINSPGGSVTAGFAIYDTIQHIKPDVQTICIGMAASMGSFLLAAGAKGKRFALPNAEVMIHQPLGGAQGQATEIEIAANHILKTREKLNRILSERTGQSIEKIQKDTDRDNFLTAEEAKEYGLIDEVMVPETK
T2 sequence (Q2G036 whole entry): as above

For the molecule `CCc1ccc(NC(=O)N[C@@H](Cc2cc(F)cc(F)c2)C(=O)N[C@@H]2C(=O)N3CCC[C@H]3C(=O)N3CCCC[C@H]3C(=O)N[C@@H](C)C(=O)N3C[C@@H](C)C[C@H]3C(=O)O[C@H]2C)cc1` [Compound 21, (S)-3-(3,5-Difluorophenyl)-2-(3-(4-Ethylphenyl)Ureido)-N-((2R,6S,8aS,14aS,20S,21S,23aS)-2,6,21-Trimethyl-5,8,14,19,23-Pentaoxooctadecahydro-1H,5H,14H,19H-Pyrido[2,1-I]Dipyrrolo[2,1-C:2′,1′-L][1]Oxa[4,7,10,13]Tetraazacyclohexadecin-20-Yl)Propanamide] ({NH(4-Et-phenyl)-CO}-[Phe(3,5-F2)][aThr]P[Pip]A[Pro(4S-Me)]; ester 2-C), the 50% effective concentration (EC50) – broadly, the concentration at which the effect is half-maximal – in series [1] is 0.33 µM; in series [4], 1.1 ± 0.3 µM. The IC50 (usually the concentration needed to halve the response being measured) at 72 h in series [2] (Vero kidney epithelial cells (ATCC CCL-81), Vero cells, 72 hours, read-out: Cytotoxicity IC50) stood at 68.5 ± 6.6 µM. Besides, the IC50 in series [3] stood at 7.3 ± 0.3 µM.
As for `C[C@@H]1C[C@H]2C(=O)OC[C@H](NC(=O)[C@H](Cc3ccccc3)NC(=O)Nc3ccc(OC(F)(F)F)cc3)C(=O)N3CCC[C@H]3C(=O)N3CCCC[C@H]3C(=O)N[C@@H](C)C(=O)N2C1` [Compound 2, (S)—N-((2R,6S,8aS,14aS,20S,23aS)-2,6-Dimethyl-5,8,14,19,23-Pentaoxooctadecahydro-1H,5H,14H,19H-Pyrido[2,1-I]Dipyrrolo[2,1-C:2′,1′-L][1]Oxa[4,7,10,13]Tetraazacyclohexadecin-20-Yl)-3-Phenyl-2-(3-(4-(Trifluoromethoxy)Phenyl)Ureido)Propanamide], the figures for the EC50 in series [1] and in series [4] were 0.5 µM and 2.6 ± 0.4 µM, respectively. In series [5], the “Minimal Inhibitory Concentration E. coli K12ΔtolC” value worked out at 12.5 µM. For the same molecule, in series [2], the IC50 at 72 h worked out at 88.3 ± 15.2 µM. Further, the IC50 in series [3] stood at 7.66 ± 0.3 µM.
For `COc1cccc(NC(=O)N[C@@H](Cc2ccccc2)C(=O)N[C@H]2COC(=O)[C@@H]3C[C@@H](C)CN3C(=O)[C@H](C)NC(=O)[C@@H]3CCCCN3C(=O)[C@@H]3CCCN3C2=O)c1` [Compound 8, (S)—N-((2R,6S,8aS,14aS,20S,23aS)-2,6-Dimethyl-5,8,14,19,23-Pentaoxooctadecahydro-1H,5H,14H,19H-Pyrido[2,1-I]Dipyrrolo[2,1-C:2′,1′-L][1]Oxa[4,7,10,13]Tetraazacyclohexadecin-20-Yl)-2-(3-(3-Methoxyphenyl)Ureido)-3-Phenylpropanamide] the same measures were 1.3 µM, 3 ± 0.4 µM, 200 µM, > 100 µM and 16.3 ± 0.8 µM.
Take `O=C(N[C@H](CO)[C@H](O)c1ccc([N+](=O)[O-])cc1)C(Cl)Cl` [Chloroamphenicol, chloramphenicol, reference compound]: the “Minimal Inhibitory Concentration E. coli K12ΔtolC” value in series [5] stood at 0.78 µM. The “Minimal Inhibitory Concentration S. aureus USA 300 ΔClpP” value in series [6] was found to be 6.3 µM.
Take `CCc1cccc(NC(=O)N[C@@H](Cc2ccccc2)C(=O)N[C@H]2COC(=O)[C@@H]3C[C@@H](C)CN3C(=O)[C@H](C)NC(=O)[C@@H]3CCCCN3C(=O)[C@@H]3CCCN3C2=O)c1` [Compound 10, (S)—N-((2R,6S,8aS,14aS,20S,23aS)-2,6-Dimethyl-5,8,14,19,23-Pentaoxooctadecahydro-1H,5H,14H,19H-Pyrido[2,1-1]Dipyrrolo[2,1-C:2′,1′-L][1]Oxa[4,7,10,13]Tetraazacyclohexadecin-20-Yl)-2-(3-(3-Ethylphenyl)Ureido)-3-Phenylpropanamide]: the EC50 in series [1] was 0.9 ± 0.018 µM; in series [4], 1.5 ± 0.6 µM. This molecule returned an IC50 at 72 h in series [2] of 74.8 ± 4.6 µM. The IC50 in series [3] is 13.6 ± 1.7 µM.
Consider `C[C@H]1C[C@H]2C(=O)O[C@@H](C)[C@H](NC(=O)[C@H](Cc3cc(F)cc(F)c3)NC(=O)Nc3ccc(OC(F)(F)F)cc3)C(=O)N3CCC[C@H]3C(=O)N3CCCC[C@H]3C(=O)N[C@@H](C)C(=O)N2C1` [Compound 22, (S)-3-(3,5-Difluorophenyl)-2-(3-(4-(Trifluoromethoxy)Phenyl)Ureido)-N-((2R,6S,8aS,14aS,20S,21S,23aS)-2,6,21-Trimethyl-5,8,14,19,23-Pentaoxooctadecahydro-1H,5H,14H,19H-Pyrido[2,1-I]Dipyrrolo[2,1-C:2′,1′-L][1]Oxa[4,7,10,13]Tetraazacyclohexadecin-20-Yl)Propanamide], for which the EC50 in series [1] was 0.32 µM; in series [4], 3.6 ± 0.4 µM. The IC50 at 72 h in series [2] (Vero cells, 72 hours, read-out: Cytotoxicity IC50) was 52.3 ± 7.7 µM. Besides, the concentration for half-maximal inhibition (IC50) in series [3] amounted to 8.9 ± 0.3 µM.
Regarding `CCc1ccc(NC(=O)N[C@@H](Cc2cc(F)cc(F)c2)C(=O)N[C@H]2COC(=O)[C@@H]3C[C@@H](C)CN3C(=O)[C@H](C)NC(=O)[C@@H]3CCCCN3C(=O)[C@@H]3CCCN3C2=O)cc1` [Compound 14, (S)-3-(3,5-Difluorophenyl)-N-((2R,6S,8aS,14aS,20S,23aS)-2,6-Dimethyl-5,8,14,19,23-Pentaoxooctadecahydro-1H,5H,14H,19H-Pyrido[2,1-I]Dipyrrolo[2,1-C:2′,1′-L][1]Oxa[4,7,10,13]Tetraazacyclohexadecin-20-Yl)-2-(3-(4-Ethylphenyl)Ureido)Propanamide], the midpoint of inhibition in series [2], the IC50 at 72 h, lay at 70.5 ± 13.5 µM. Also, the IC50 in series [3] was 61.3 ± 5 µM. Besides, the 50% effective concentration (EC50) in series [4] turned out to be 2.5 ± 0.6 µM.
Regarding `CCc1ccc(NC(=O)N[C@@H](Cc2ccccc2)C(=O)N[C@H]2COC(=O)[C@@H]3C[C@@H](C)CN3C(=O)[C@H](C)NC(=O)[C@@H]3CCCCN3C(=O)[C@@H]3CCCN3C2=O)cc1` [Compound 4, (S)—N-((2R,6S,8aS,14aS,20S,23aS)-2,6-Dimethyl-5,8,14,19,23-Pentaoxooctadecahydro-1H,5H,14H,19H-Pyrido[2,1-1]Dipyrrolo[2,1-C:2′,1′-L][1]Oxa[4,7,10,13]Tetraazacyclohexadecin-20-Yl)-2-(3-(4-Ethylphenyl)Ureido)-3-Phenylpropanamide], the 50% effective concentration (EC50) was 5.5 µM in series [1] and 1.4 ± 0.1 µM in series [4]. Besides, the “Minimal Inhibitory Concentration E. coli K12ΔtolC” value in series [5] was 25 µM. In addition, the IC50 at 72 h in series [2] is 73.7 ± 8.4 µM. For the same molecule, in series [3], the IC50 turned out to be 29 ± 2.1 µM.
